Test results published in US8735140B2, “Preservation and composition of bioprocess algae for production of lipids, seedstock, and feed” (Kuehnle AgroSystems, Inc., priority 2008, dated 2014).

Key:
[1] = tested on: Chlorella KAS503; test: Trehalose preservation, pretreatment with 0.5M sorbitol and embedding in alginate mat; assay type: cell-based; conditions: for % viability after storage & rejuvenation / Cell recovery after storage, relative to control: 0M control = 100%; for Cell number after 21 weeks in storage & rejuvenation: 3 weeks rejuvenation; for Growth after storage & rejuvenation: 21 weeks + 3 weeks rejuvenation; for Cell recovery after storage, relative to control: 21 weeks
Procedure: (§1) Cells in 40 ml flask cultures are grown to mid-log phase with a density of between 3×10^6 and 3×10^7 cells/ml, and are centrifuged. Culture medium is removed after centrifugation, resulting in more concentrated algae cells. Cells are then re-suspended in ideal glass solution consisting of fresh culture medium and trehalose at a concentration of 0.1M, 0.3M, and 0.5M (dihydrate trehalose 100 from Hayashibara Co. Ltd, Okayama, Japan), respectively, and left overnight with mild agitation. Cells are centrifuged again to remove the ideal glass solution the next day, and are re-suspended in fresh or salt water without any nutrient. The cell density of the resulting suspension is determined prior to storage under the various treatments. (Some cells were also treated with a 0.5M sorbitol solution). In one specific embodiment, 2% (w/v) alginate solution (Sigma-Aldrich A-2033) and 3% CaCl2 solution (Sigma-Aldrich C1016) are prepared in salt water or fresh water medium as required by specific algae species, and autoclave sterilized. Then, 2.0 ml 2% alginate solution is pipetted into each well of a BD Falcon 12-well plate. 0.2 ml algae cell suspension is then pipetted into each well and the mixture is further stirred. The alginate-cell mixture is further sprayed with 3% CaCl2 solution in a sterile pump bottle, allowing the alginate to solidify. After solidification, plates are closed and placed under low light and at ambient temperature. After stored under the above preservation conditions for 5 months, algae cells can be rejuvenated by overlaying alginate/algae mixture with 3.0 ml sterile 5.0% NaPolyphosphate (Sigma Aldrich 305553) and allowing to the mixture sit overnight. The algae/alginate/NaPolyphosphate mixture is then removed from the 12-well plate, diluted with fresh medium (3 parts fresh medium to 1 part cell suspension) and placed under light. In one specific embodiment, cells are treated with trehalose solution at various concentrations and left overnight. Cells are centrifuged the next day to remove the trehalose solution, and then re-suspended in sterile 0.5M D-sorbitol (Fisher Scientific […]) dissolved in salt or fresh-water medium as required by specific algae species. Cells are left to stand for 2 hours with mild agitation. After 2 hours, cells are centrifuged again to remove the 0.5M sorbitol solution and re-suspended in fresh or salt-water medium. Cells are counted after the re-suspension. Cell viability is determined by comparing the cell growth in control set with the experimental set. Specifically, cell counts are performed on all samples. The averaged density value (in cells per ml) for all the cultures after treatment is defined as “rejuvenation cell count.” In some samples, the percent recovery of cells immediately after storage is also determined. The formulae are illustrated as follows: Growth=(rejuvenation cell count)/(initial cell count) Cell recovery after storage=(cell density after storage)/(initial cell density), with controls set at 100% cell recovery. Viability after storage and rejuvenation in nutrient medium=(Growth of treatment)/(Growth of control)×100%, with controls set at 100% viability

[2] = tested on: Synechocystis KAS635; test: as above; assay type: cell-based; conditions: for % viability after storage & rejuvenation / Cell recovery after storage, relative to control: 0M control = 100%; for Cell number after 21 weeks in storage & rejuvenation: 3 weeks rejuvenation; for Cell recovery after storage / Cell recovery after storage, relative to control: 21 weeks; for Growth after storage & rejuvenation: 21 weeks + 3 weeks rejuvenation
Procedure: as §1

[3] = 0.1M trehalose in F/2, 0.5M sorbitol pretreatment
[4] = 0.3M trehalose in F/2, 0.5M sorbitol pretreatment
[5] = 0.5M trehalose in F/2, 0.5M sorbitol pretreatment
[6] = 0.1M trehalose in BG11, 0.5M sorbitol pretreatment
[7] = 0.3M trehalose in BG11, 0.5M sorbitol pretreatment
[8] = 0.5M trehalose in BG11, 0.5M sorbitol pretreatment

**Q.** Which “Cell number after 21 weeks in storage” value [1, 3] does the source give for `OC[C@H]1O[C@H](O[C@H]2O[C@H](CO)[C@@H](O)[C@H](O)[C@H]2O)[C@H](O)[C@@H](O)[C@@H]1O` [trehalose, α-D-glycosyl-α-D-glycosylpyranoside] here?
**A.** 1.163 × 10^7

**Q.** What about the “% viability after storage & rejuvenation” value [1, 3] of the same compound?
**A.** (51%)

**Q.** And the “Cell number after 21 weeks in storage & rejuvenation” value [1, 3]?
**A.** 1.03 × 10^7 cells/ml

**Q.** And the “Growth after storage & rejuvenation” value [1, 3]?
**A.** 0.89

**Q.** What about the “Cell recovery after storage, relative to control” value [1, 3] of the same compound?
**A.** (227%)

**Q.** What about the “Cell number after 21 weeks in storage” value [1, 4] of the same compound?
**A.** 8.097 × 10^6

**Q.** What about the “% viability after storage & rejuvenation” value [1, 4] of the same compound?
**A.** (148%)

**Q.** And the “Cell number after 21 weeks in storage & rejuvenation” value [1, 4]?
**A.** 2.080 × 10^7 cells/ml

**Q.** And the “Growth after storage & rejuvenation” value [1, 4]?
**A.** 2.57

**Q.** What about the “Cell recovery after storage, relative to control” value [1, 4] of the same compound?
**A.** (226%)

**Q.** And the “Cell number after 21 weeks in storage” value [1, 5]?
**A.** 8.589 × 10^6

**Q.** What about the “% viability after storage & rejuvenation” value [1, 5] of the same compound?
**A.** (132%)

**Q.** And the “Cell number after 21 weeks in storage & rejuvenation” value [1, 5]?
**A.** 1.959 × 10^7 cells/ml

**Q.** And the “Growth after storage & rejuvenation” value [1, 5]?
**A.** 2.28

**Q.** What about the “Cell recovery after storage, relative to control” value [1, 5] of the same compound?
**A.** (231%)

**Q.** What about the “Cell number after 21 weeks in storage” value [2, 6] of the same compound?
**A.** 1.275 × 10^7

**Q.** And the “% viability after storage & rejuvenation” value [2, 6]?
**A.** (87%)

**Q.** What about the “Cell number after 21 weeks in storage & rejuvenation” value [2, 6] of the same compound?
**A.** 2.436 × 10^7 cells/ml

**Q.** And the “Cell recovery after storage” value [2, 6]?
**A.** 0.39

**Q.** And the “Growth after storage & rejuvenation” value [2, 6]?
**A.** 1.91

**Q.** And the “Cell recovery after storage, relative to control” value [2, 6]?
**A.** (106%)

**Q.** And the “Cell number after 21 weeks in storage” value [2, 7]?
**A.** 1.421 × 10^7

**Q.** What about the “% viability after storage & rejuvenation” value [2, 7] of the same compound?
**A.** (144%)

**Q.** And the “Cell number after 21 weeks in storage & rejuvenation” value [2, 7]?
**A.** 4.495 × 10^7 cells/ml

**Q.** What about the “Cell recovery after storage” value [2, 7] of the same compound?
**A.** 0.42

**Q.** What about the “Growth after storage & rejuvenation” value [2, 7] of the same compound?
**A.** 3.16

**Q.** What about the “Cell recovery after storage, relative to control” value [2, 7] of the same compound?
**A.** (114%)

**Q.** What about the “Cell number after 21 weeks in storage” value [2, 8] of the same compound?
**A.** 2.023 × 10^7

**Q.** And the “% viability after storage & rejuvenation” value [2, 8]?
**A.** (80%)

**Q.** What about the “Cell number after 21 weeks in storage & rejuvenation” value [2, 8] of the same compound?
**A.** 3.560 × 10^7 cells/ml

**Q.** And the “Cell recovery after storage” value [2, 8]?
**A.** 0.72

**Q.** What about the “Growth after storage & rejuvenation” value [2, 8] of the same compound?
**A.** 1.76

**Q.** What about the “Cell recovery after storage, relative to control” value [2, 8] of the same compound?
**A.** (195%)
